Measurements published in patent publication US11930814B2, “Pesticidal mixtures comprising cyanosulfoximine compounds” (BASF SE, priority 2007, dated 2024).

How the values were obtained:
Type in all cases: in vivo
[1] = system: green peach aphid (Myzus persicae); experiment: Test B.2: control of green peach aphid through systemic means, artificial diet under membrane in microtiter plates; settings: 3 days
Excerpt: For evaluating control of green peach aphid (Myzus persicae) through systemic means the test unit consisted of microtiter plates containing liquid artificial diet under an artificial membrane.
The compounds or mixtures were formulated using a solution containing 75 wt % water and 25 wt % DMSO. Different concentrations of formulated compounds or mixtures were pipetted into the aphid diet, using a custom built pipetter, at two replications. For experimental mixtures in these tests identical volumes of both mixing partners at the desired concentrations respectively, were mixed together.
After application, 5-8 adult aphids were placed on the artificial membrane inside the microtiter plate wells. The aphids were then allowed to suck on the treated aphid diet and incubated at 23±1° C., 50±5% RH for 3 days. Aphid mortality and fecundity was then visually assessed.

[2] = system: vetch aphid (Megoura viciae); experiment: Test B.1: control of vetch aphid on broad bean leaf disks in microtiter plates (contact or systemic); settings: 5 days
Procedure: For evaluating control of vetch aphid (Megoura viciae) through contact or systemic means the test unit consisted of microtiter plates containing broad bean leaf disks. The compounds or mixtures were formulated using a solution containing 75 wt % water and 25 wt % DMSO. Different concentrations of formulated compounds or mixtures were sprayed onto the leaf disks at 2.5 μl, using a custom built micro atomizer, at two replications.
(§1) For experimental mixtures in these tests identical volumes of both mixing partners at the desired concentrations respectively, were mixed together.
After application, the leaf disks were air-dried and 5-8 adult aphids placed on the leaf disks inside the microtiter plate wells. The aphids were then allowed to suck on the treated leaf disks and incubated at 23±1° C., 50±5% RH (relative humidity) for 5 days. Aphid mortality and fecundity was then visually assessed.

[3] = system: Mediterranean fruitfly (Ceratitis capitata); experiment: Test B.4: control of Mediterranean fruitfly, insect diet with eggs in microtiter plates; settings: 5 days
Procedure: For evaluating control of Mediterranean fruitfly (Ceratitis capitata) the test unit consisted of well-microtiter plates containing an insect diet and 50-80 C. capitata eggs. The compounds or mixtures were formulated using a solution containing 75 wt % water and 25 wt % DMSO. Different concentrations of formulated compounds or mixtures were sprayed onto the insect diet at 5 μl, using a custom built micro atomizer, at two replications.
as §1
After application, microtiter plates were incubated at 28±1° C., 80±5% RH for 5 days. Egg and larval mortality was then visually assessed.

[4] = system: boll weevil (Anthonomus grandis); experiment: Test B.3: control of boll weevil, insect diet with eggs in microtiter plates; settings: 5 days
Procedure: For evaluating control of boll weevil (Anthonomus grandis) the test unit consisted of well-microtiter plates containing an insect diet and 20-30 A. grandis eggs.
The compounds or mixtures were formulated using a solution containing 75 wt % water and 25 wt % DMSO. Different concentrations of formulated compounds or mixtures were sprayed onto the insect diet at 20 μl, using a custom built micro atomizer, at two replications.
as §1
After application, microtiter plates were incubated at 23±1° C., 50±5% RH for 5 days. Egg and larval mortality was then visually assessed.

[5] = 0.08 + 0 ppm (compound II + compound I), compound II alone
[6] = 200 + 0 ppm (compound II + compound I), compound II alone
[7] = 2 + 0 ppm (compound II + compound I), compound II alone
[8] = 0.4 + 0 ppm (compound II + compound I), compound II alone
[9] = 0 + 0.8 ppm (compound II + compound I), compound I alone
[10] = 0 + 20 ppm (compound II + compound I), compound I alone
[11] = 4 + 0 ppm (compound II + compound I), compound II alone

With `CNC(=O)c1cc(Cl)cc(C)c1NC(=O)c1cc(Br)nn1-c1ncccc1Cl` [Rynaxypyr] the “Average Control %” value [1, 5] was 0%.
For `CN1COCN(Cc2cnc(Cl)s2)/C1=N\[N+](=O)[O-]` [Thiamethoxam, thiamethoxam], the “Average Control %” value [1, 5] was 0%.
With `CC(C)(C)c1ccc(CSc2cnn(C(C)(C)C)c(=O)c2Cl)cc1` [Pyridaben, pyridaben] the “Average Control %” value [2, 6] was 50% and the “Average Control %” value [3, 6] was 50%.
`CC1(C)C(C=C(Cl)Cl)C1C(=O)OC(C#N)c1cccc(Oc2ccccc2)c1` (stereo not drawn) [Alphacypermethrin, alpha-cypermethrin] was tested, and the “Average Control %” value [2, 7] was 0% and the “Average Control %” value [3, 8] was 0%.
For `CS(=O)(Cc1ccc(Cl)nc1)=NC#N` (centres unmarked) [Compound C.I.1], the “Average Control %” value [2, 9] was 0%, the “Average Control %” value [1, 10] was 50% and the “Average Control %” value [4, 10] was 0%. For the same compound, the “Average Control %” value ([3]; 0 + 4 ppm (compound II + compound I), compound I alone) was 0% and the “Average Control %” value [3, 10] was 0%.
`CCOC(=O)OC1=C(c2cc(C)ccc2C)C(=O)N[C@]12CC[C@@H](OC)CC2` [Spirotetramat, spirotetramat] was tested, and the “Average Control %” value ([2]; 100 + 0 ppm (compound II + compound I), compound II alone) was 50% and the “Average Control %” value [1, 11] was 0%.
For `CNC(=O)c1cc(C#N)cc(C)c1NC(=O)c1cc(Br)nn1-c1ncccc1Cl` [Compound II.A^13.1], the “Average Control %” value [3, 8] was 0%.
`O=[N+]([O-])NC1=NCCN1Cc1ccc(Cl)nc1` [Imidacloprid, imidacloprid] was tested, and the “Average Control %” value [4, 7] was 25% and the “Average Control %” value [3, 11] was 0%.
In the case of `N#Cc1nn(-c2c(Cl)cc(C(F)(F)F)cc2Cl)c(N)c1[S+]([O-])C(F)(F)F` (centres unmarked) [Fipronil, fipronil], the “Average Control %” value [2, 7] was 25%.
With `CC(c1ccc(Cl)nc1)S(C)(=O)=NC#N` (centres unmarked) [Compound C.I.2] the “Average Control %” value [2, 9] was 0%, the “Average Control %” value ([3]; 0 + 10 ppm (compound II + compound I), compound I alone) was 0% and the “Average Control %” value [3, 10] was 0%.
